Experimental data taken from patent USRE43879E1, “Use of the dextrogyral enantiomer of milnacipran for the preparation of a drug” (priority 2003, dated 2012).

Assays:
primary rat hepatocytes [1] = assay: Cytotoxicity test (MTT-assay) on primary rat hepatocytes; type: cell-based; details: 16 hours
Experimental: The […] and […] compounds, enantiomers of the racemic molecule […], as well as clomipramine, a reference product, (coded […] in the study) were assessed in the present study. The two enantiomers, […] and […], were first assessed in a preliminary cytotoxicity text (MTT-assay) on primary rat hepatocytes, in order to select the three concentrations to be used in the final test. The cells used in the study (preliminary MTT-assay of cytotoxicity and the main test) are cryopreserved hepatocytes from Sprague-Dawley rats in primary culture (batches Hep184005 and Hep184006-Biopredic), cultured under standard conditions. […] Formazan is solubilised in an organic solvent and the solution obtained can be measured by spectrophotometry. The absorbance measured is proportional to the number of surviving cells. The cells are put into contact with the product to be tested at […] (0-1-10-25-50 and 100 μM) for 16 hours. After this period of exposure, an MTT solution (0.5 mg/ml in the incubation medium of the primary hepatocytes) is added for 3 hours. After solubilisation of the formazan crystals, the multi-well plates are read with a spectrophotometer at 500 nm in order to determine the percentage of cell viability. These assays were performed in triplicate on primary rat hepatocytes exposed for 16 hours.

primary rat hepatocytes [2] = assay: Safe-Hit genomic test of predictive toxicology (Toxicity Index) on primary rat hepatocytes; type: cell-based; details: 16 h
Excerpt: After treatment of the primary rat hepatocytes in culture, the RNA was extracted in order to generate labelled complementary-DNA probes which were then hybridised on a membrane containing 682 alternatively-spliced fragments specific to cell stress. A Toxicity Index was obtained for each of the products by comparing the hybridisation profile of the treated cells with that of the untreated cells.
Safe-Hit allows molecules within a chemical series to be ranked according to a Toxic Index, determined after the following basic steps (systematically performed in duplicate for each product): • treatment of the cells lines with the various products at three different concentrations, deduced from a preliminary cytotoxicology test (MTT-assay): a reference concentration corresponding to 80% cell viability, a concentration 10-fold higher—when possible—and a concentration 10-fold lower, • preparation of total RNA and of the corresponding radio-labelled cDNA probes, • hybridisation of the cDNA probes: the Safe-Hit macroarray contains 682 independent clones, corresponding to alterations in gene splicing induced by overexpression of WTp53 (p53 is the most ubiquitous “mediator” of cell stress, chosen for the development of this methodology), • acquisition and determination of the Toxicity Index. 4.1.2. Cells
The cells used in the study (preliminary MTT-assay of cytotoxicity and the main test) are cryopreserved hepatocytes from Sprague-Dawley rats in primary culture (batches Hep184005 and Hep184006-Biopredic), cultured under standard conditions.
The cells are seeded and cultured for 16 hours with each product, at the three concentrations chosen on the basis of the preliminary MTT-assay; two controls (untreated cells in solvent alone) are added to the series.
The results of the two Safe-Hit analyses are then compared and combined to assess the potential toxicity of the various compounds tested. Two parameters that can be modified by the user are involved in the calculation of the Toxicity Index: • Background Threshold (BT) smoothes out weak signals, close to background noise and not attributable to significant gene expression. […] The value of this parameter is usually 2 or less than 2 in order to obtain relevant results. […]
Toxicity Indices (TI) were determined as described above. […] Two separate analyses were performed using two levels of differentiation (Induction Factor-IF) in relation to the untreated controls: • a factor of at least 1.7 in relation to the untreated controls. This factor of 1.7 times represents the weakest value that allows an index not to be obtained in relation to the two untreated controls. • a factor of at least 2 in relation to the untreated controls. This factor of 2 times allows the most robust signals to be taken into account. 4.3.1. Induction Factor of 1.7 in Relation to Untreated Control (Table 7)

Compound: CN(C)CCCN1c2ccccc2CCc2ccc(Cl)cc21 [C218, clomipramine]
- Toxicity in MTT-assay (primary rat hepatocytes [1]; 25 μM): no toxicity was observed
- Cell viability in MTT-assay (primary rat hepatocytes [1]; 50 μM): greater than 80%
- Cytotoxicity / cell viability in MTT-assay (primary rat hepatocytes [1]; 100 μM): no cell viability was observed
- Clone A09 (H. sapiens mitochondrion, 12S), regulation factor vs untreated control (primary rat hepatocytes [2]; 1 μM): 2.90
- Clone AA11 (H. sapiens Repeat sequence AluJb fragment inserted into a cDNA coding for an unknown protein), regulation factor vs untreated control (primary rat hepatocytes [2]; 1 μM): 0.38
- Clone AC13 (H. sapiens 7S RNA L gene), regulation factor vs untreated control (primary rat hepatocytes [2]; 1 μM): 0.28
- Clone C01 (H. sapiens mitochondrion, 16S), regulation factor vs untreated control (primary rat hepatocytes [2]; 1 μM): 1.93
- Clone T08 (H. sapiens mRNA for KIAA1185 protein), regulation factor vs untreated control (primary rat hepatocytes [2]; 1 μM): 0.35
- Clone U04 (H. sapiens translation initiation factor elF-2alpha mRNA), regulation factor vs untreated control (primary rat hepatocytes [2]; 1 μM): 0.48
- Clone X02 (unk), regulation factor vs untreated control (primary rat hepatocytes [2]; 1 μM): 0.36
- Clone X06 (H. sapiens Genomic sequence from 9q34), regulation factor vs untreated control (primary rat hepatocytes [2]; 1 μM): 0.23
- Clone Z13 (unk), regulation factor vs untreated control (primary rat hepatocytes [2]; 1 μM): 0.34
- Clone A09 (H. sapiens mitochondrion, 12S), regulation factor vs untreated control (primary rat hepatocytes [2]; 10 μM): 2.23
- Clone AA11 (H. sapiens Repeat sequence AluJb fragment inserted into a cDNA coding for an unknown protein), regulation factor vs untreated control (primary rat hepatocytes [2]; 10 μM): 0.27
- Clone AC13 (H. sapiens 7S RNA L gene), regulation factor vs untreated control (primary rat hepatocytes [2]; 10 μM): 0.16
- Clone B20 (H. sapiens chromosome 19, BAC CIT-B-191n6), regulation factor vs untreated control (primary rat hepatocytes [2]; 10 μM): 0.14
- Clone B22 (H. sapiens Genomic sequence from 17), regulation factor vs untreated control (primary rat hepatocytes [2]; 10 μM): 0.17
- Clone C01 (H. sapiens mitochondrion, 16S), regulation factor vs untreated control (primary rat hepatocytes [2]; 10 μM): 1.82
- Clone E05 (H. sapiens DNA sequence from clone 740A11 on chromosome Xq22.2-23, part of COL4A5 gene), regulation factor vs untreated control (primary rat hepatocytes [2]; 10 μM): 0.22
- Clone E21 (H. sapiens ribosomal protein S14 gene), regulation factor vs untreated control (primary rat hepatocytes [2]; 10 μM): 0.56
- Clone M12 (H. sapiens mRNA; cDNA DKFZp564C1563), regulation factor vs untreated control (primary rat hepatocytes [2]; 10 μM): 0.16
- Clone T08 (H. sapiens mRNA for KIAA1185 protein), regulation factor vs untreated control (primary rat hepatocytes [2]; 10 μM): 0.14
- Clone U04 (H. sapiens translation initiation factor elF-2alpha mRNA), regulation factor vs untreated control (primary rat hepatocytes [2]; 10 μM): 0.22
- Clone X02 (unk), regulation factor vs untreated control (primary rat hepatocytes [2]; 10 μM): 0.24
- Clone X05 (H. sapiens microsomal epoxide hydrolase (EPHX) gene), regulation factor vs untreated control (primary rat hepatocytes [2]; 10 μM): 0.15
- Clone X06 (H. sapiens Genomic sequence from 9q34), regulation factor vs untreated control (primary rat hepatocytes [2]; 10 μM): 0.15
- Clone Z13 (unk), regulation factor vs untreated control (primary rat hepatocytes [2]; 10 μM): 0.29
- Clone A09 (H. sapiens mitochondrion, 12S), regulation factor vs untreated control (primary rat hepatocytes [2]; 100 μM): 2.14
- Clone AA11 (H. sapiens Repeat sequence AluJb fragment inserted into a cDNA coding for an unknown protein), regulation factor vs untreated control (primary rat hepatocytes [2]; 100 μM): 0.31
- Clone AA13 (H. sapiens 18S rRNA gene), regulation factor vs untreated control (primary rat hepatocytes [2]; 100 μM): 1.79
- Clone AC13 (H. sapiens 7S RNA L gene), regulation factor vs untreated control (primary rat hepatocytes [2]; 100 μM): 0.28
- Clone B20 (H. sapiens chromosome 19, BAC CIT-B-191n6), regulation factor vs untreated control (primary rat hepatocytes [2]; 100 μM): 0.27
- Clone B22 (H. sapiens Genomic sequence from 17), regulation factor vs untreated control (primary rat hepatocytes [2]; 100 μM): 0.32
- Clone C01 (H. sapiens mitochondrion, 16S), regulation factor vs untreated control (primary rat hepatocytes [2]; 100 μM): 1.91
- Clone E01 (H. sapiens mRNA for lipocortin II), regulation factor vs untreated control (primary rat hepatocytes [2]; 100 μM): 1.73
- Clone E05 (H. sapiens DNA sequence from clone 740A11 on chromosome Xq22.2-23, part of COL4A5 gene), regulation factor vs untreated control (primary rat hepatocytes [2]; 100 μM): 0.35
- Clone E19 (H. sapiens mitochondrion, cytochrome c oxidase subunit 1), regulation factor vs untreated control (primary rat hepatocytes [2]; 100 μM): 1.72
- Clone E21 (H. sapiens ribosomal protein S14 gene), regulation factor vs untreated control (primary rat hepatocytes [2]; 100 μM): 0.58
- Clone F24 (H. sapiens LIM homeobox protein cofactor (CLIM-1) mRNA), regulation factor vs untreated control (primary rat hepatocytes [2]; 100 μM): 0.52
- Clone G01 (H. sapiens estrogen receptor-related protein (variant ER from breast cancer) mRNA), regulation factor vs untreated control (primary rat hepatocytes [2]; 100 μM): 2.04
- Clone G05 (H. sapiens mitochondrion, cytochrome c oxidase subunit 1), regulation factor vs untreated control (primary rat hepatocytes [2]; 100 μM): 2.02
- Clone G09 (H. sapiens mitochondrion, cytochrome b), regulation factor vs untreated control (primary rat hepatocytes [2]; 100 μM): 1.76
- Clone I18 (H. sapiens 18S rRNA gene), regulation factor vs untreated control (primary rat hepatocytes [2]; 100 μM): 1.88
- Clone L23 (H. sapiens cDNA NIH_MGC_16 clone IMAGE: 3350241 5′, mRNA sequence), regulation factor vs untreated control (primary rat hepatocytes [2]; 100 μM): 1.75
- Clone M07 (H. sapiens mitochondrion, cytochrome c oxidase subunit 1), regulation factor vs untreated control (primary rat hepatocytes [2]; 100 μM): 1.75
- Clone M12 (H. sapiens mRNA; cDNA DKFZp564C1563), regulation factor vs untreated control (primary rat hepatocytes [2]; 100 μM): 0.39
- Clone Q11 (unk), regulation factor vs untreated control (primary rat hepatocytes [2]; 100 μM): 1.92
- Clone S01 (Mus muculus TCR beta locus), regulation factor vs untreated control (primary rat hepatocytes [2]; 100 μM): 2.98
- Clone T08 (H. sapiens mRNA for KIAA1185 protein), regulation factor vs untreated control (primary rat hepatocytes [2]; 100 μM): 0.22
- Clone U04 (H. sapiens translation initiation factor elF-2alpha mRNA), regulation factor vs untreated control (primary rat hepatocytes [2]; 100 μM): 0.37
- Clone X02 (unk), regulation factor vs untreated control (primary rat hepatocytes [2]; 100 μM): 0.31
- Clone X05 (H. sapiens microsomal epoxide hydrolase (EPHX) gene), regulation factor vs untreated control (primary rat hepatocytes [2]; 100 μM): 0.24
- Clone X06 (H. sapiens Genomic sequence from 9q34), regulation factor vs untreated control (primary rat hepatocytes [2]; 100 μM): 0.23
- Clone Z13 (unk), regulation factor vs untreated control (primary rat hepatocytes [2]; 100 μM): 0.27
- Clone Z20 (Homo sapiens cDNA wc44h09, similar to RAS_RELATED PROTEIN RAB-24, mRNA sequence), regulation factor vs untreated control (primary rat hepatocytes [2]; 100 μM): 0.57
- Number of down-regulated clones (Down) (primary rat hepatocytes [2]; Induction Factor 1.7, 1 μM): 7
- Number of up-regulated clones (Up) (primary rat hepatocytes [2]; Induction Factor 1.7, 1 μM): 2
- Toxicity Index (TI, number of signatures) (primary rat hepatocytes [2]; Induction Factor 1.7, 1 μM): 9
- Number of down-regulated clones (Down) (primary rat hepatocytes [2]; Induction Factor 1.7, 10 μM): 13
- Number of up-regulated clones (Up) (primary rat hepatocytes [2]; Induction Factor 1.7, 10 μM): 2
- Toxicity Index (TI, number of signatures) (primary rat hepatocytes [2]; Induction Factor 1.7, 10 μM): 15
- Toxicity Index (TI, number of signatures) (primary rat hepatocytes [2]; Induction Factor 1.7, 50 μM): 28
- Number of down-regulated clones (Down) (primary rat hepatocytes [2]; Induction Factor 1.7, 100 μM): 15
- Number of up-regulated clones (Up) (primary rat hepatocytes [2]; Induction Factor 1.7, 100 μM): 13
- Toxicity Index (TI, number of signatures) (primary rat hepatocytes [2]; Induction Factor 1.7, 100 μM): 28
- Number of down-regulated clones (Down) (primary rat hepatocytes [2]; Induction Factor 2, 1 μM): 7
- Number of up-regulated clones (Up) (primary rat hepatocytes [2]; Induction Factor 2, 1 μM): 1
- Toxicity Index (TI, number of signatures) (primary rat hepatocytes [2]; Induction Factor 2, 1 μM): 8
- Number of down-regulated clones (Down) (primary rat hepatocytes [2]; Induction Factor 2, 10 μM): 12
- Number of up-regulated clones (Up) (primary rat hepatocytes [2]; Induction Factor 2, 10 μM): 1
- Toxicity Index (TI, number of signatures) (primary rat hepatocytes [2]; Induction Factor 2, 10 μM): 13
- Toxicity Index (TI, number of signatures) (primary rat hepatocytes [2]; Induction Factor 2, 50 μM): 16
- Number of down-regulated clones (Down) (primary rat hepatocytes [2]; Induction Factor 2, 100 μM): 12
- Number of up-regulated clones (Up) (primary rat hepatocytes [2]; Induction Factor 2, 100 μM): 4
- Toxicity Index (TI, number of signatures) (primary rat hepatocytes [2]; Induction Factor 2, 100 μM): 16
